# According to patent US20180028516A1, “METHODS AND DEVICES FOR THE TREATMENT OF OCULAR DISEASES IN HUMAN SUBJECTS” (CLEARSIDE BIOMEDICAL, INC., priority 2012, published 2018):
# “Also recorded” adds a separate entry of the source.
# Tests used:
# [1] = Electroretinography in porcine uveitis study (Example 13); assay type: in vivo, domestic weanling pigs; conditions: after SCS or IVT injections of 0.2 or 2.0 mg TA
# Description: With the pigs anesthetized on Days −1, 0 and 3, and pupils dilated with 1% tropicamide HCl. and corneas anesthetized with 0.5% proparacaine HCl, whole field ERGs were recorded from the left eve prior to injections. All animals were dark adapted for 15 minutes prior to ERG. A monopolar contact lens electrode (ERG-jet, La Chaux des Fonds, Switzerland) was placed on the cornea to serve as an active electrode. A subdermal electrode at the lateral canthus served as the indifferent electrode. A Barraquer eyelid speculum was placed to maintain open eyelids and a subdermal needle electrode was inserted dorsally as the ground electrode. EKGs were elicited by brief flashes at 0.33 Hz delivered with a mini-ganzfehl photostimulator (Roland Instruments, Wiesbaden, Germany) at maximal intensity. Twenty responses were amplified, filtered, and averaged (Retiport Electrophysiologic Diagnostic Systems, Rolland Instruments, Wiesbaden, Germany). B wave amplitudes were recorded from each pig at the designated times.
# [2] = system: LPS-induced acute posterior uveitis; assay: Ocular inflammatory scores in LPS-induced porcine uveitis (Example 13); conditions: for mean cumulative inflammatory scores compared with Group 1 (BSS IVT/vehicle SCS): Days 1, 2, and 3
# Description: A totalof 20 domestic wearrling pigs (Sus sergfir domesticus), male or female, (12-20 kg) were used in this study. Only the left eye was tested in this study; the right eye was not injected, examined, or treated. All injections were performed with the pigs anesthetized (intramuscular Telazol-Ketamine-Xylazine and isoflorane in oxygen via mask) and the eve prepared aseptically (sterile 5% betadine solution followed by irrigation with sterile eyewash).
# Twenty-four hours prior to SCS or IVT injection of TA or vehicle (Day-1), 100 ng of lipopolysaccharide (ITS; E. coli 055:B55; Sigma, Inc. St. Louis, Mo.) in 100 μL BSS (Balanced Salt Solution, Alcon Laboratories, Inc., Forth Worth, Tex.), was injected using a 27 gauge needle into the posterior central vitreous.
# Twenty-four hours after the LPS injection (Day 0), 0.2 mg or 2.0 mg of commercially-available TA (Triesence®; Alcon Laboratories, Inc, Forth Worth, Tex.) or vehicle was injected either intravitreally (27 gauge needle) or into the SCS (33 gauge, 850 μm microneedle) in eyes prepared aseptically (Table 7). The dose of TA was selected to represent a typical therapeutic dose (e.g., 2.0 mg) and a dose 10 times less to compare therapeutic effect.
# All injections were made superiorly, approximately 5-6 mm posterior to the limbus. […] TA was diluted using vehicle to provide a low dose (0.2 mg/100 μL) or high dose (2.0 mg/100 μL). The vehicle (100 uL) was also used in the control groups, but without TA.
# A Hackett-McDonald microscopic ocular inflammatory scoring system, modified for use in pigs (instead of New Zealand White rabbits) as described below, was used to evaluate the ocular anterior segment and anterior vitreous. Scores of the conjunctiva (congestion, swelling, discharge, 0-4); aqueous flare (0-3); pupillary light reflex (0-2); iris involvement (0-4); cornea (involvement and area, 0-4); pannus (vascularization, 0-2); and anterior vitreal cellular infiltrate (0-4) were summed to provide a single inflammatory score for each animal for each examination. Using a portable slit lamp biomicroscope (Zeiss HSO-10, Carl Zeiss Meditec, Inc. USA), ocular inflammatory scores were evaluated at Day -1 (prior to LPS injection), at Day 0 (prior to vehicle or TA injection), then at 1, 2 and 3 days after injection,
# For histologic grading, two independent observers masked to the treatment group evaluated each eye at each time point and the average resulting scores for each animal were used for analysis, Parametric normally distributed data (i.e., IOP, ERG, retinal thickness, cell counts, protein concentration) were compared by time point for each group using 1-way ANOVA models with Tukey-Kramer post-hoc analysis. For non-parametric data (i.e., clinical scores, histologic grades), Wilcoxon tests were conducted per animal by time point. Differences were considered significant at P<0.05. Results and probAilities were calculated using computerized statistical software (JMP 10, SAS Inc. Cary, N.C.).
# [3] = system: LPS-induced acute posterior uveitis; assay: Wide-field ocular fundus digital photography in porcine uveitis study (Example 13); assay type: in vivo, domestic weanling pigs; conditions: 3 days after treatment
# Source text: On study days −1, 0 and 3, with the animals anesthetized arid pupils dilated with tropicamide 1%, the ocular fundus was photographed using standardized illumination and focus by a wide-field digital imaging system (Retcam II, Clarity Medical Systems, Pleasanton, Calif.).
# [4] = Plasma and ocular matrix toxicokinetics after SCS TA, LC-MS/MS (Example 9); assay type: in vivo, New Zealand White rabbit
# Description: (§1) On Day 0, New Zealand White (NZW) rabbits were administered a single bilateral supraehoroidal injection of vehicle, 3.2 mg (80 μL) or 5.2 mg (130 μL) of TA (Triesence®, Alcoa labs) using a 33 g 750 μm microneedle. Clinical observations, slit lamp biomicroscopy with McDonald-Shadduck scoring, intraocular pressure assessment (IOP), electroretinography (ERG), and systemic exposure were assessed up to 26 weeks post-dose. Animals were sacrificed on Day 1, Week 13, and Week 26 for macroscopic observations, ocular toxicokinetics, and ocular histopathology.
# Plasma and oct lar matrixes (aqueous humor (AH), lens, iris/ciliary body (ICB), vitreous humor (VH), sclera/choroid (SC), and retina) were sampled on Days 1, 14, 28, and 60. Plasma (LLOQ 0.5 ng/mL) and ocular matrixes (LLOQ 2-15 ng/mL) were analyzed using LC-MS/MS, and resulting data were assessed for noncompartmental PK parameters. Systemic exposure to TA was minimal (FIG. 20C).
# [5] = Ocular toxicokinetics of TA after suprachoroidal or intravitreal injection (Example 8); assay type: in vivo, pigmented rabbits; conditions: SCS, 2 mg TA, compared with intravitreal
# Description: in this study, the total amount of triamcinolone acetonide (TA) delivered into live pigmented rabbit eyes when injected, into the suprachoroidal space using a hollow microneedle or into the vitreous using a standard 30 gauge needle was compared.
# On Day 0, pigmented rabbits were injected with either intravitreal or bilateral suprachoroidal injections of 2 mg/100 μl TA Triesence® (TA; Alcon Labs). intravitreal injections were performed using a 30 g needle (Becton-Dickinson) and suprachoroidal injections were performed using a 33 g 750 μm microneedle. The residual amount of TA present in the syringe/needle assembly after injection was determined by RP-HPLC. Clinical observations, slit lamp biomicroscopy with McDonald-Shadduck scoring, intraocular pressure assessment (IOP), electroretinography (ERG), and systemic exposure were assessed up to 120 days post-dose. Animals were sacrificed at 30 minutes, 7 days, 30 days, 60 days, and 120 days for macroscopic observations, ocular toxicokinetics, and ocular histopathology.
# [6] = Ocular histopathology after SCS TA (Example 9); assay type: in vivo, New Zealand White rabbit
# Description: In this study, the ocular tolerability and toxicokinetics of suprachoroidal administration of triamcinolone acetonide (TA) using a microneedle in a GLP study in the New Zealand White rabbit.
# as §1
compound,measurement,setting,value
"CC1(C)O[C@@H]2C[C@H]3[C@@H]4CCC5=CC(=O)C=C[C@]5(C)[C@@]4(F)[C@@H](O)C[C@]3(C)[C@]2(C(=O)CO)O1 [TA, triamcinolone acetonide]",retinal dysfunction (decrease in b wave amplitude),[1],no evidence of retinal dysfunction
same,effectiveness in reducing acute ocular inflammation,[2]; 0.2 mg TA IVT,less effective
same,"mean cumulative inflammatory scores compared with Groups 1, 3, 4 and 6","[2]; 0.2 mg TA IVT (Group 5), 24 hours after treatment (Day 1)",significantly higher
same,mean cumulative inflammatory scores compared with SCS TA (Groups 3 and 4) and Group 1,"[2]; 0.2 mg TA IVT, 48 and 72 hours after treatment",significantly higher mean scores
same,mean cumulative inflammatory scores compared with Group 1 (BSS IVT/vehicle SCS),[2]; 0.2 mg TA SCS (Group 3),not significantly different
same,mean cumulative inflammatory scores compared with Group 1 (BSS IVT/vehicle SCS),[2]; 2.0 mg TA SCS (Group 4),not significantly different
same,effectiveness in reducing inflammation compared with 2.0 mg TA IVT injection,[2]; SCS injection of 0.2 mg and 2.0 mg of TA,as effective
same,decrease in effective dose when the drug is delivered to the SCS,[2]; SCS vs IVT,10 fold
same,ocular fundus images (vitreal cloudiness),[3]; 0.2 mg TA IVT,only slightly improved over vehicle treated eyes
same,ocular fundus images (vitreal cloudiness),[3]; 0.2 mg TA SCS,less vitreal cloudiness and similar to the pre-treatment fundus appearance; also recorded: near pre-treatment appearance
same,ocular fundus images (vitreal cloudiness),[3]; 2.0 mg TA IVT,less vitreal cloudiness and similar to the pre-treatment fundus appearance; also recorded: near pre-treatment appearance
same,ocular fundus images (vitreal cloudiness),[3]; 2.0 mg TA SCS,less vitreal cloudiness and similar to the pre-treatment fundus appearance; also recorded: near pre-treatment appearance
same,systemic exposure to TA,"[4]; 3.2 or 5.2 mg TA SCS, plasma",minimal
same,difference between TA levels in sclera/choroid and in the vitreous,[4]; SCS TA,6 orders of magnitude
same,"amount of TA retained in the retina, high dose vs low dose","[4]; by day 15, SCS",did not significantly differ
same,"amount of TA retained in the sclera/choroid, high dose vs low dose","[4]; by day 30, SCS",did not significantly differ
same,order of TA in ocular matrixes (decreasing),[4]; following SCS TA,SC>retina>ICB>VH>lens>AU
same,sclera/choroid tissue concentration of TA,[4]; for longer than 28 days after a single SCS dose,greater than 100 μg/g tissue
same,TA peak concentration in plasma,"[4]; peaked on Day 1, both the high and low TA dose groups (5.2 and 3.2 mg SCS)",around 12 nglint
same,ratio of TA Lens:Chroroid and Lens:Retina,[5],much lower
same,"adverse effects related to the method of administration or treatments, as assessed by histopathology",[6]; 3.2 or 5.2 mg TA SCS,no adverse effects
same,inflammatory cells and test article in the suprachoroidal space (histopathology),[6]; 3.2 or 5.2 mg TA SCS,observed in the suprachoroidal space of TA-treated animals on Day 1 but not Week 13
same,"Ciliary process edema, animals with finding","[6]; Day 1, 3.2 mg TA/eye SCS, F",4
same,"Corneal epithelial thinning, animals with finding","[6]; Day 1, 3.2 mg TA/eye SCS, F",2
same,"Inflammatory cells in SCS, animals with finding","[6]; Day 1, 3.2 mg TA/eye SCS, F",4
same,"TA in SCS, animals with finding","[6]; Day 1, 3.2 mg TA/eye SCS, F",5
same,"Ciliary process edema, animals with finding","[6]; Day 1, 3.2 mg TA/eye SCS, M",4
same,"Conjunctival subepithelial inflammatory cells, animals with finding","[6]; Day 1, 3.2 mg TA/eye SCS, M",3
same,"Corneal epithelial thinning, animals with finding","[6]; Day 1, 3.2 mg TA/eye SCS, M",3
same,"Inflammatory cells in SCS, animals with finding","[6]; Day 1, 3.2 mg TA/eye SCS, M",5
same,"TA in SCS, animals with finding","[6]; Day 1, 3.2 mg TA/eye SCS, M",5
same,"Ciliary process edema, animals with finding","[6]; Day 1, 5.2 mg TA/eye SCS, F",5
same,"Conjunctival subepithelial inflammatory cells, animals with finding","[6]; Day 1, 5.2 mg TA/eye SCS, F",3
same,"Corneal epithelial thinning, animals with finding","[6]; Day 1, 5.2 mg TA/eye SCS, F",1
same,"Inflammatory cells in SCS, animals with finding","[6]; Day 1, 5.2 mg TA/eye SCS, F",5
same,"Small area of retinal damage (attributed to needle insertion), animals with finding","[6]; Day 1, 5.2 mg TA/eye SCS, F",1
same,"TA in SCS, animals with finding","[6]; Day 1, 5.2 mg TA/eye SCS, F",5
same,"Ciliary process edema, animals with finding","[6]; Day 1, 5.2 mg TA/eye SCS, M",4
same,"Conjunctival subepithelial inflammatory cells, animals with finding","[6]; Day 1, 5.2 mg TA/eye SCS, M",2
same,"Corneal epithelial thinning, animals with finding","[6]; Day 1, 5.2 mg TA/eye SCS, M",3
same,"Inflammatory cells in SCS, animals with finding","[6]; Day 1, 5.2 mg TA/eye SCS, M",5
same,"TA in SCS, animals with finding","[6]; Day 1, 5.2 mg TA/eye SCS, M",4
same,"Ciliary process edema, animals with finding","[6]; Week 13, 3.2 mg TA/eye SCS, F",1
same,"Dilated choroidal vessels, animals with finding","[6]; Week 13, 3.2 mg TA/eye SCS, F",1
same,"Small area of retinal damage (attributed to needle insertion), animals with finding","[6]; Week 13, 3.2 mg TA/eye SCS, F",1
same,"Ciliary process edema, animals with finding","[6]; Week 13, 3.2 mg TA/eye SCS, M",3
same,"Ciliary process edema, animals with finding","[6]; Week 13, 5.2 mg TA/eye SCS, F",3
same,"Ciliary process edema, animals with finding","[6]; Week 13, 5.2 mg TA/eye SCS, M",1
same,"Dilated choroidal vessels, animals with finding","[6]; Week 13, 5.2 mg TA/eye SCS, M",1
